Source: article PMC8692993, “PPARα and PPARγ activation is associated with pleural mesothelioma invasion but therapeutic inhibition is ineffective” (iScience, 2021)
Read-outs that look alike come from different tables or passages of the source.

How the values were obtained:
PPARγ [1] = target: T1, PPARγ (Homo sapiens, UniProt P37231); design: expressed in transfected cells; host or cells: HG5LN (HeLa-derived, GAL4RE-luciferase); method as in Seimandi et al., 2005; details: inhibition of agonism by 20 nM rosiglitazone (BRL49653), ref Seimandi et al., 2005, read-out: Functionality, Lit. IC50; cited from earlier work
T1 sequence (P37231 238-503 limits assumed): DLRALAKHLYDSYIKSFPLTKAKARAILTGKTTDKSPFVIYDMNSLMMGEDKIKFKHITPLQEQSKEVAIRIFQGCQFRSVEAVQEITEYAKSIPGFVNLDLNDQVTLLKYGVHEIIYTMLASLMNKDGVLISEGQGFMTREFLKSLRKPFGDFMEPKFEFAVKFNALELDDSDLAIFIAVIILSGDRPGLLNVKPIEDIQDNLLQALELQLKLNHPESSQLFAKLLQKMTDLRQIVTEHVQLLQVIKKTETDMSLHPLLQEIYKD

PPARα [2] = target: T2, PPARα (Homo sapiens, UniProt Q07869); design: method as in Leesnitzer et al., 2002; details: displacement of [3H]GW2331, incubation time 1 h, ref Leesnitzer et al., 2002, read-out: Lit. Binding assay, IC50; cited from earlier work
T2 sequence (Q07869 239-466 limits assumed): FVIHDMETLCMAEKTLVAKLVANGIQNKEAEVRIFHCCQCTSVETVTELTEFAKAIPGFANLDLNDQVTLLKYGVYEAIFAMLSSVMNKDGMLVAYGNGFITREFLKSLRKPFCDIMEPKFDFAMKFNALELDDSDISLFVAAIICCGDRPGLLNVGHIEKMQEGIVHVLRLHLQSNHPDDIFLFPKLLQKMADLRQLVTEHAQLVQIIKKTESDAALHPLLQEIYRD

PPARα [3] = target: T2, PPARα; assay: HG5LN reporter cell assay, PPARα-mediated transcription; type: cell-based; design: expressed in transfected cells; host or cells: HG5LN (HeLa-derived, GAL4RE-luciferase)
Description: (§1) Nuclear receptors, including PPARα and γ, are ligand-inducible transcription factors that form heterodimers with retinoid X receptors and bind to specific DNA sites located in the enhancer/promoter region of target genes, releasing co-repressors and/or recruiting co-activators ([Wang, 2010]). We therefore assessed the functional consequences of the ligands on PPARα and γ-mediated transcriptional activation in reporter cell lines. These cell lines were generated as previously reported by a two-step transfection procedure ([Seimandi et al., 2005]). First, a stable cell line, HG5LN, expressing the reporter gene (GAL4RE-luciferase) was developed from the HeLa cell line. These cells were then transfected with a plasmid expressing the C-terminal ligand-binding domain of PPARα or γ fused to GAL4 DNA-binding domain. The parental HG5LN cells were used as a control to test non-specific modulation of luciferase expression by the small molecules investigated (Figure S4A). The HG5LN PPAR reporter cells therefore allow comparison of the functional activity at, and selectivity of different ligands for, PPARα and γ. […] As expected ([Abu Aboud et al., 2015]), GW6471 potently antagonized PPARα (Figure 4E and Table 1).
(§2) A transfected […] cell line HG5LN was used ([Balaguer et al., 2001]). These cells were cultured in Dubecco's modified Eagle's medium (DMEM-F12 Thermo Fisher Scientific) with phenol red and supplemented with 5% foetal calf serum, incubated at 37°C in a 5% CO2/95% air-humidified atmosphere. Luciferase assays were performed in DMEM-F12 (Thermo Fisher Scientific) without phenol red and supplemented with 5% dextran-coated charcoal-stripped FCS (test culture medium), puromycin (Thermo Fisher Scientific) 0.5 μg/mL and geneticin (Thermo Fisher Scientific) 1 mg/mL. Cells were seeded at a density of 5 x 10^4 cells/well and incubated for 8 h at 37°C in a 96-well plate white opaque tissue culture plates (Becton-Dickinson). Tested compounds were added in serial dilutions and incubated for 16 h at 37°C. After incubation, the medium containing the effectors was carefully removed and replaced by culture medium containing 3 x 10^−4 mol/L luciferin (Sigma Chemicals). After 5 min incubation at room temperature, the 96-well plate was then read with a Microbeta Wallac luminometer and the luminescence was measured in the living cells for 2 s. All experiments were performed in quadruplicate.

PPARγ [4] = target: T1, PPARγ; design: method as in Leesnitzer et al., 2002; details: displacement of [3H]rosiglitazone, incubation time 1 h, ref Leesnitzer et al., 2002, read-out: Lit. Binding assay, IC50; cited from earlier work
PPARα [5] = target: T2, PPARα; design: expressed in transfected cells; host or cells: HG5LN (HeLa-derived, GAL4RE-luciferase); method as in Seimandi et al., 2005; details: ref Seimandi et al., 2005, cited from earlier work
PPARα [6] = target: T2, PPARα; assay: LanthaScreen TR-FRET binding assay, PPARα; details: 2 h incubation, mean of 3 replicates ± SEM
Description: (§3) The LanthaScreen™ TR-FRET binding assay was performed following the manufacturer's guidelines (PV4894, Invitrogen) as follows, 20 mM stock solution of the ligand or control in DMSO were serially diluted using 100% DMSO to produce a range of concentrations from 100 μM to 1 pM. The test compound solutions were mixed with the reaction buffer in a 1 (ligand) in 10 (reaction buffer) dilution for a final 2X ligand concentration. This was mixed with the reaction components (glutathione S-transferase (GST)-PPPARγLBD (0.5 nM)/, terbium (Tb)-labelled anti-GST antibody (5 nM) and Fluormone pan-PPAR green (5 nM for PPARγ; 20 nM for PPARα) at room temperature in a ratio of 8 μLl 2X ligand solution: 4 μLl of 4XFluormone: and 4 μLl 4X GST-PPPARγLBD/terbium (Tb)-labelled anti-GST antibody to produce a final reaction mixture volume of 16 μL. The concentration of DMSO in the final reaction mixture was 5%. The reaction mixture was kept at room temperature for 2 h prior to recording the TR-FRET emission spectra using a CLARIOstar Plus microplate reader (BMG Labtech). […] Results are expressed as the ratio of fluorescence intensity at 520 nm (Fluormone emission) and 490 nm (Tb emission). […] For each compound three serial dilutions were prepared and measured separately. The IC50 and SEM values were determined using a sigmoidal dose-response equation with varying slope using GraphPad Prism.

PPARγ [7] = target: T1, PPARγ; assay: HG5LN reporter cell assay, PPARγ-mediated transcription; type: cell-based; design: expressed in transfected cells; host or cells: HG5LN (HeLa-derived, GAL4RE-luciferase)
Description: as §1, §2

PPARγ [8] = target: T1, PPARγ; assay: LanthaScreen TR-FRET binding assay, PPARγ; details: 2 h incubation, mean of 3 replicates ± SEM
Description: as §3

[9] = tested on: brain metastases from melanoma and breast cancer; design: method as in Zou et al., 2019; details: murine models; ref Zou et al., 2019; cited from earlier work
[10] = tested on: SC model of melanoma or a metastatic model of lung cancer; design: method as in Zou et al., 2019; details: ref Zou et al., 2019; cited from earlier work
[11] = tested on: HAP1, HAP1 PPARA KO, and HAP1 PPARG KO cell lines; assay: MTT cell metabolic activity assay, HAP1 lines; type: cell-based, human; details: arachidonic acid 5 and 10 μM, p <0.0001
Description: (§4) Cells were harvested and seeded in 96-flat well plates (Corning) at a density of 5 x 10^4 cells/mL overnight. Media was removed and 100 μL media with GW6471 or GW9662 at indicated concentrations was added to each well. Cell viability and toxicity were measured at 48 h. Cells were incubated with 50 μL of a 2 mg/mL solution of (3-(4,5-dimethyl-thiazole-2-yl)-2,5-[…] tetrazolium (MTT, Sigma-Aldrich) in PBS for 4 h and then exposed to 100 μL dimethyl sulfoxide (DMSO; Sigma-Aldrich). Cell viability was measured by absorption at 570 nm in a microplate spectrophotometer (Spectromax 250 plate reader). Results are shown as relative cell viability.

AB1 = assay: MTT cell metabolic activity assay, AB1; type: cell-based, mouse; details: AB1, arachidonic acid 5 and 10 μM, p <0.05
Description: as §4

AE17 = assay: MTT cell metabolic activity assay, AE17; type: cell-based, mouse; details: AE17, arachidonic acid 5 and 10 μM, p <0.05
Description: as §4

VGE62 = assay: MTT cell metabolic activity assay, VGE62; type: cell-based, human; details: VGE62, arachidonic acid 5 and 10 μM, p <0.05
Description: as §4

**Q.** Which results are given for `O=C(Nc1ccccc1)c1cc([N+](=O)[O-])ccc1Cl` [GW9662]?
**A.** IC50 (PPARγ [1]): 3.8 ± 1.3 nM; IC50 (PPARα [2]): 39 ± 4 nM; Functionality, Type (PPARα [3]): partial agonist; IC50 (PPARα [3]; inhibition of agonism by 10 nM GW7647, 16 h incubation, mean of 3 experiments ± SEM): 131 ± 31 nM; IC50 (PPARγ [4]): 5.4 ± 0.6 nM; EC50 (PPARα [5]; PPARα partial agonism, read-out: Functionality, Lit. EC50): 26 ± 9 nM; IC50 (PPARα [5]; PPARα, inhibition of agonism by 30 nM GW7647, read-out: Functionality, Lit. IC50): 188 ± 43 nM; Maximal activity reached (partial agonism) (PPARα [5]; PPARα): j 33% of maximal activity ([Seimandi et al., 2005]).; IC50 (PPARα [6]): 214 ± 64.6 nM; Functionality, Type (PPARγ [7]): antagonist; IC50 (PPARγ [7]; inhibition of agonism by 30 nM rosiglitazone, 16 h incubation, mean of 3 experiments ± SEM): 4 ± 2.6 nM; IC50 (PPARγ [8]): 12.4 ± 3.6 nM

**Q.** What does the source list for `O=C(Nc1ccncc1)c1cc([N+](=O)[O-])ccc1Cl` [T0070907]?
**A.** Brain metastases [9]: significant decrease of brain metastases from melanoma and breast cancer; Tumor growth [10]: did not find an inhibitory effect on tumor growth

**Q.** What does the source list for `CCCCC/C=C\C/C=C\C/C=C\C/C=C\CCCC(=O)O` [arachidonic acid]?
**A.** Proliferation (MTT) in HAP1 parental versus PPARA/PPARG KO cells [11]: significant increase in proliferation, but only in the HAP1 parental cell line; Proliferation (MTT) (AB1): increased proliferation in a concentration-dependent manner; Proliferation (MTT) (AE17): increased proliferation in a concentration-dependent manner; Proliferation (MTT) (VGE62): increased proliferation in a concentration-dependent manner
